Measured values published in PMC4561908, “Direct Pore Binding as a Mechanism for Isoflurane Inhibition of the Pentameric Ligand-gated Ion Channel ELIC” (Scientific Reports, 2015).
Like-named read-outs stand apart in the source and are kept apart here.

Assays:
ELIC A244T mutant = biological target: T1, ELIC A244T mutant (Dickeya chrysanthemi, UniProt P0C7B7, A243T); experiment: Two-electrode voltage clamp of A244T (13′) ELIC mutant in Xenopus laevis oocytes; format: cell-based, Erwinia chrysanthemi
T1 construct: DNA encoding ELIC and a T7 promoter was inserted into the pCMV-mGFP Cterm S11 NeoKan (Theranostech) vector; expressed in transfected cells; host or cells: Xenopus laevis oocytes (cRNA injection)
Excerpt: (§1) To establish the functional relevance of the identified isoflurane-binding sites, we made site-directed mutations, one at a time, at positions 6′ (T237A) and 13′ (A244T). Subsequently, we expressed these mutants in Xenopus laevis oocytes and measured their functional responses to isoflurane (Fig. 3). […] However, these mutant channels, especially T237A, are much less sensitive to isoflurane inhibition than the WT ELIC. […] The functional consequences of these mutations are associated with changes in the hydrophobicity profile and pore radii near positions 6′ and 13′ (Supplementary Fig. 2). It should be noted that the side chains of the hydrophobic residue at the 9′ position are involved in both of the isoflurane-binding sites (Fig. 2c). The fact that the isoflurane inhibition curve shifts an order of magnitude to the right in the T237A mutant indicates the importance of amphipathic interactions at position 6′ for isoflurane inhibition.
Figure 3 Functional evidence of isoflurane binding to the pore. (a) Representative current traces for isoflurane inhibition of WT and two mutants: T237(6′)A; and A244(13′)T. The scale bars are 0.1 μA (vertical) and 30s (horizontal). (b) Agonist propylamine (PPA) concentration-response curves for WT and two mutants indicated in (a). The data were normalized to the maximum current and fit to the Hill equation (solid lines, n ≥ 5). (c) Isoflurane inhibition of WT and the two mutants indicated in (a). The data were normalized to the current at EC20 in the absence of isoflurane and fit to the Hill equation (solid lines, n ≥ 6). The data are reported as the mean ± SEM and error bars less than the symbol size are not visible.
Site-directed mutagenesis of ELIC was introduced with the QuickChange Lightning Kit (Agilent). DNA encoding ELIC and a T7 promoter was inserted into the pCMV-mGFP Cterm S11 NeoKan (Theranostech) vector. […]

α4β2 nAChR [1] = conditions: read-out: IC50 for nAChRs: α4β2 (rat); cited from earlier work
ELIC [2] = biological target: T2, ELIC (Dickeya chrysanthemi, UniProt P0C7B7); experiment: Two-electrode voltage clamp inhibition of wild-type ELIC expressed in Xenopus laevis oocytes; format: cell-based, Erwinia chrysanthemi
T2 construct: DNA encoding ELIC and a T7 promoter was inserted into the pCMV-mGFP Cterm S11 NeoKan (Theranostech) vector; expressed in transfected cells; host or cells: Xenopus laevis oocytes (cRNA injection)
Excerpt: The scale bars are 0.2 μA (vertical) and 30s (horizontal). The data were normalized to the current at EC20 in the absence of anesthetics and fit to the Hill equation (solid lines, n ≥ 6) for the volatile (b) and intravenous (c) general anesthetics. […] The data are reported as the mean ± SEM and error bars less than the symbol size are not visible.
Site-directed mutagenesis of ELIC was introduced with the QuickChange Lightning Kit (Agilent). DNA encoding ELIC and a T7 promoter was inserted into the pCMV-mGFP Cterm S11 NeoKan (Theranostech) vector. Capped complementary RNA was transcribed with the mMessage mMachine T7 kit (Ambion), purified with the RNeasy kit (Qiagen), injected (10–25 ng) into Xenopus laevis oocytes (stages 5–6), which were maintained at 18 °C in a modified Barth’s solution[40]. […] Oocytes were clamped to a holding potential of −40 to −60 mV. The recording solutions contained 130 mM NaCl, 0.1 mM CaCl2, 10 mM HEPES, pH 7.0 as well as desired concentrations of agonist and anesthetics. Data were collected and processed using Clampex 10 (Molecular Devices). Non-linear regressions were performed using Prism software (Graphpad).
For measuring anesthetic inhibitory effects, saturated solutions of the volatile anesthetics isoflurane, sevoflurane, and halothane were prepared in the recording solution by stirring overnight at 4 °C. Concentrations of these anesthetics in the recording chamber were calibrated using ^19F NMR[63]. The intravenous anesthetics, propofol, etomidate, and thiopental, were dissolved directly into the recording solution.

α7 nAChR [3] = tested on: α7 nAChR; set-up: method as in ref 12 (a number printed in a supplementary file, which may have a reference list of its own: not looked up in the article's list); conditions: read-out: IC50 for nAChRs: α7 (chicken); cited from earlier work
α4β4 nAChR = tested on: α4β4 nAChR; set-up: method as in ref 11 (a number printed in a supplementary file, which may have a reference list of its own: not looked up in the article's list); conditions: read-out: IC50 for nAChRs: α4β4 (chicken); cited from earlier work
α4β2 nAChR [4] = conditions: read-out: IC50 for nAChRs: α4β2 (human); cited from earlier work
α2β4 nAChR = conditions: cited from earlier work
ELIC [5] = biological target: T2, ELIC; experiment: Isoflurane pre-incubation: onset of agonist-induced ELIC current; format: cell-based, Erwinia chrysanthemi; conditions: mean ± SEM, n = 15
Procedure: Since isoflurane binds to the pore of the resting state of ELIC (Fig. 2a), pre-incubating the oocytes expressing ELIC with isoflurane for a short period of time is expected to enhance the inhibitory effect.
Figure 4 Isoflurane binding stabilized the closed channel. (a) A representative trace showing that pre-incubation with isoflurane (red arrows) slowed the onset rate and increased the maximum inhibition. The vertical and horizontal scale bars represent 20 μA and 30 seconds, representatively. (b) The onset rate of the channel current can be fitted to a single exponential decay function, I = Imax (1−e^(−t/τ)). The fitting results for the onset rate τ and Imax for channels pre-incubated with isoflurane (red line) are 1.73 ± 0.04 s and −0.33 ± 0.02 μA, respectively; and 1.25 ± 0.05 s and −0.41 ± 0.03 μA, respectively, for channels without isoflurane pre-incubation (green line). The fitting parameters are expressed as mean ± SEM (n = 15).
Site-directed mutagenesis of ELIC was introduced with the QuickChange Lightning Kit (Agilent). DNA encoding ELIC and a T7 promoter was inserted into the pCMV-mGFP Cterm S11 NeoKan (Theranostech) vector. Capped complementary RNA was transcribed with the mMessage mMachine T7 kit (Ambion), purified with the RNeasy kit (Qiagen), injected (10–25 ng) into Xenopus laevis oocytes (stages 5–6), which were maintained at 18 °C in a modified Barth’s solution[40]. All procedures involving Xenopus laevis oocytes were approved by the University of Pittsburgh Institutional Animal Care and Use Committee (IACUC), Protocol 14114745. Two-electrode voltage clamp experiments were performed 16–40 hrs after injection using an Oocyte Clamp OC-725C amplifier (Warner Instruments), Digidata 1440A digitizer (Axon Instruments), and a 20 μl chamber (Automate Scientific). Oocytes were clamped to a holding potential of −40 to −60 mV. The recording solutions contained 130 mM NaCl, 0.1 mM CaCl2, 10 mM HEPES, pH 7.0 as well as desired concentrations of agonist and anesthetics. Data were collected and processed using Clampex 10 (Molecular Devices). Non-linear regressions were performed using Prism software (Graphpad).

α3β4 nAChR = tested on: α3β4 nAChR; set-up: method as in ref 8 (a number printed in a supplementary file, which may have a reference list of its own: not looked up in the article's list); conditions: read-out: IC50 for nAChRs: α3β4; cited from earlier work
ELIC T237A mutant = biological target: T3, ELIC T237A mutant (Dickeya chrysanthemi, UniProt P0C7B7, T236A); experiment: Two-electrode voltage clamp of T237A (6′) ELIC mutant in Xenopus laevis oocytes; format: cell-based, Erwinia chrysanthemi
T3 construct: DNA encoding ELIC and a T7 promoter was inserted into the pCMV-mGFP Cterm S11 NeoKan (Theranostech) vector; expressed in transfected cells; host or cells: Xenopus laevis oocytes (cRNA injection)
T3 sequence (P0C7B7 1-321 T236A): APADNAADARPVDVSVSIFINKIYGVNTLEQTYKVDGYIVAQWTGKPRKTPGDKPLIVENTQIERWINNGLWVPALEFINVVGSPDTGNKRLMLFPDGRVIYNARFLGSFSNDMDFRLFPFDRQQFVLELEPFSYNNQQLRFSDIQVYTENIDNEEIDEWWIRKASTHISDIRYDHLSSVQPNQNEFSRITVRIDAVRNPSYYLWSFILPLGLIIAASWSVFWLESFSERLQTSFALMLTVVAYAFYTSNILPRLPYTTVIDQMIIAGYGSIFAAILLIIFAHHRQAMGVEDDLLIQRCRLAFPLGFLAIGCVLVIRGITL
Excerpt: as §1
Figure 3 Functional evidence of isoflurane binding to the pore. (a) Representative current traces for isoflurane inhibition of WT and two mutants: T237(6′)A; and A244(13′)T. The scale bars are 0.1 μA (vertical) and 30s (horizontal). (b) Agonist propylamine (PPA) concentration-response curves for WT and two mutants indicated in (a). The data were normalized to the maximum current and fit to the Hill equation (solid lines, n ≥ 5). […]

[6] = anesthetizing concentrations in animals; read-out: Clinical EC50; cited from earlier work
α4β2 nAChR [7] = tested on: α4β2 nAChR; set-up: method as in ref 6 (a number printed in a supplementary file, which may have a reference list of its own: not looked up in the article's list); conditions: read-out: IC50 for nAChRs: α4β2 (chicken); cited from earlier work
α7 nAChR [8] = tested on: α7 nAChR; set-up: method as in ref 16 (a number printed in a supplementary file, which may have a reference list of its own: not looked up in the article's list); conditions: read-out: IC50 for nAChRs: α7 (human); cited from earlier work
[9] = WT ELIC, agonist propylamine (PPA) at EC20, oocytes, mean ± SEM, n ≥ 6, read-out: IC50 for ELIC
[10] = channels pre-incubated with isoflurane, single exponential fit
[11] = channels without isoflurane pre-incubation

T2 sequence (P0C7B7 whole entry): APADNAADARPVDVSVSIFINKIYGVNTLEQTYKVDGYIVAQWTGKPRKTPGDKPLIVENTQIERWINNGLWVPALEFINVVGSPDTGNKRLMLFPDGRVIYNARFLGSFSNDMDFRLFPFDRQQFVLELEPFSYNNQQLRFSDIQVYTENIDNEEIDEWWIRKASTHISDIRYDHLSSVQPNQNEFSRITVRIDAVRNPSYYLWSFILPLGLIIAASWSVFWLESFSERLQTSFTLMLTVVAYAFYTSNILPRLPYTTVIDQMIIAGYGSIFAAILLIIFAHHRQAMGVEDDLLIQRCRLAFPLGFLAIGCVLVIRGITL
T1 sequence (P0C7B7 whole entry A243T): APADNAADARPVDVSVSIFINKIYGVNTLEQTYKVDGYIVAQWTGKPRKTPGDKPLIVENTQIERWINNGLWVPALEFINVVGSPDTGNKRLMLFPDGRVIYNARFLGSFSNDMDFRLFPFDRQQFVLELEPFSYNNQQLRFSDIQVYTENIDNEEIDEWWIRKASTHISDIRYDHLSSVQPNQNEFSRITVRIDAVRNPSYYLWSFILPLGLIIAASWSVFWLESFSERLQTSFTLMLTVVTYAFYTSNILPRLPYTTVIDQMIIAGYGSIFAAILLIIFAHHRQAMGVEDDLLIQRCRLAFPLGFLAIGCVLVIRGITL

Compound: CCCN [PPA, propylamine]
- EC50 of agonist PPA compared with WT ELIC (ELIC A244T mutant; A244T mutant vs wild-type ELIC): nearly identical

Compound: CCOC(=O)c1cncn1[C@H](C)c1ccccc1 [etomidate]
- IC50 (α4β2 nAChR [1]): 49 µM
- IC50 (ELIC [2]): 11.2 ± 1.1 µM
- IC50 (α7 nAChR [3]): 25.3 µM
- IC50 (α4β4 nAChR): 33 µM

Compound: FC(F)(F)C(Cl)Br (centres unmarked) [halothane]
- IC50 (α4β2 nAChR [4]): 27 µM
- IC50 (ELIC [2]; [9]): 40 ± 4.5 µM
- IC50 (α2β4 nAChR; read-out: IC50 for nAChRs: α2β4 (human)): 47 µM

Compound: FC(F)OC(Cl)C(F)(F)F (centres unmarked) [isoflurane]
- IC50 (α4β2 nAChR [4]): 82 µM
- IC50 (ELIC [2]; [9]): 21.9 ± 1.5 µM
- IC50 (ELIC A244T mutant): 61.7 ± 5.5 µM
- Increase of isoflurane IC50 relative to the WT channel (ELIC A244T mutant; A244T vs WT ELIC): ~3 fold
- Imax of channel current (ELIC [5]; [10]): −0.33 ± 0.02 μA
- Onset rate τ of channel current (ELIC [5]; [10]): 1.73 ± 0.04 s
- Imax of channel current (ELIC [5]; [11]): −0.41 ± 0.03 μA
- Onset rate τ of channel current (ELIC [5]; [11]): 1.25 ± 0.05 s
- IC50 (α3β4 nAChR): 56 µM
- IC50 (ELIC T237A mutant; T237A (6′) mutant, PPA at EC20, mean ± SEM, n ≥ 6, read-out: IC50 of isoflurane, T237A channel): 525 ± 58.2 µM
- Increase of isoflurane IC50 relative to the WT channel (ELIC T237A mutant; T237A vs WT ELIC): more than an order of magnitude
- IC50 (α2β4 nAChR; read-out: IC50 for nAChRs: α2β4): 25 µM

Compound: CC(C)c1cccc(C(C)C)c1O [propofol]
- EC50 [6]: 1.5 µM
- IC50 (α4β2 nAChR [7]): 19 µM
- IC50 (α4β2 nAChR [1]): 4.5 µM
- IC50 (ELIC [2]; [9]): 11.9 ± 1.1 µM

Compound: FCOC(C(F)(F)F)C(F)(F)F [sevoflurane]
- IC50 (ELIC [2]; [9]): 23.2 ± 1.6 µM

Compound: CCCC(C)C1(CC)C(=O)NC(=S)NC1=O (centres unmarked) [thiopental]
- EC50 [6]: 25 µM
- IC50 (α7 nAChR [8]): 40.6 µM
- IC50 (α4β2 nAChR [1]): 26 µM
- IC50 (ELIC [2]): 42.8 ± 1.1 µM
